Consider 15 molecules from PubChem BioAssay (NCI).

Holding throughout (assay): NCI anticancer screen, dose series, 48 h
In test [1] the test system is LOX IMVI melanoma.
Test [2] concerns NCI-H460 lung.
For test [3], the system named is SNB-19 CNS.
Test [4] deals with HL-60(TB) leukemia.
The test system of test [5] is COLO 205 colon.
The test system of test [6] is HCT-116 colon.
Test [7] has as its system OVCAR-3 ovarian.
Test [8] relates to SF-268 CNS.
The subject of test [9] is HT29 colon.
For test [10], the system named is SF-295 CNS.

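Following 48 hours of exposure in 96-well plates, responses at five concentrations were used to interpolate endpoints linearly. Abbreviation: GI50, concentration required for 50% inhibition of growth. TGI marks complete inhibition of growth.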

For `NC[C@H]1Nc2ccccc2[C@@H](O)C1O` (some centres undefined), the TGI in test [1], in test [2], in test [3], in [4], in test [5] and in test [6] was over 100 µM each time. Moreover, the TGI in [7], in [8], in test [9] and in test [10] was over 100 µM in each case.

Take `N#Cc1ccc2c(c1)C(=O)c1c-2n(CCCCl)c(=O)c2cc([N+](=O)[O-])ccc12`: the GI50 was 2.28 µM in test [1]; 0.395 µM in test [2]; 3.39 µM in test [3]; 11.4 µM in test [4]; over 100 µM in test [5]; 1.82 µM in test [6]. In addition, the GI50 in test [7] is 8.77 µM; in test [8], 1.49 µM; in test [9], 7.93 µM; in [10], 4.21 µM. Further, the TGI in test [1] was 14.8 µM; in [2] it was over 100 µM; in test [3], over 100 µM; in [4], 29.9 µM; in test [5], over 100 µM; in test [6], over 100 µM. For the same molecule, the TGI in test [7], in [8], in test [9] and in [10] was over 100 µM in each case.

Take `C=C1C(=O)O[C@H]2[C@H]1CC/C(COC(=O)c1cc3ccccc3o1)=C\CC[C@@]1(C)O[C@@H]21`: the GI50 in test [1] is 1.42 µM; in [2] it was 2 µM; in test [3], 3.16 µM; in test [4], 1.22 µM; in test [5], 1.55 µM; in test [6] it was 0.32 µM. Further, the GI50 in [7] was 0.485 µM; in test [8] it was 1.56 µM; in test [9] it was 0.829 µM; in test [10], 5.9 µM. The TGI in test [1] stood at 2.81 µM; in test [2], 4.51 µM; in [3], 13.3 µM; in test [4], 3.68 µM; in test [5], 3.15 µM; in test [6] it was 1.3 µM. Moreover, the TGI in test [7] is 1.72 µM; in test [8] it was 3.27 µM; in [9] it was 2.21 µM; in test [10], 19.1 µM.

Consider `CC(C)[O-].CC(C)[O-].O=C1C=C([O-])C(=O)c2ccccc21.O=C1C=C([O-])C(=O)c2ccccc21.[Ti+4]`, for which the GI50 in test [1] is 5.21 µM; in test [2], 15.3 µM; in test [3], over 100 µM; in test [4], 17.4 µM; in [5] it was 30 µM; in [6], 43.7 µM. Moreover, the GI50 was over 70.5 µM in test [7], over 100 µM in test [8], 34.9 µM in test [9] and 28.1 µM in test [10]. The TGI in test [1], in test [2], in test [3], in [4], in test [5] and in test [6] was over 100 µM in each case. The TGI in [7], in [8], in test [9] and in test [10] was over 100 µM each time.

Consider `O=C1CC(=O)N(C(=O)c2nn(-c3ccc(Cl)cc3)cc2O)N1`, for which the GI50 in test [1] is 1.15 µM; in [2], 0.345 µM; in [3] it was 0.5 µM; in test [4] it was 0.751 µM; in [5], 0.748 µM; in test [6], 0.34 µM. For the same molecule, the GI50 is 1.31 µM in test [7], 0.461 µM in test [8], 0.585 µM in [9] and 0.17 µM in test [10]. The TGI in test [1] is over 100 µM; in [2] it was over 100 µM; in test [3], over 100 µM; in test [4], 4.08 µM; in [5] it was 3.99 µM; in test [6], over 100 µM. Also, the TGI was 6.16 µM in test [7], over 100 µM in test [8], over 50.4 µM in [9] and over 100 µM in test [10].

Take `Cc1cc(=O)oc2c(C)c(O)ccc12`: the TGI in [1], in test [2], in test [3], in test [4], in test [5] and in test [6] was over 100 µM each time. Moreover, the TGI in test [7], in test [8], in test [9] and in test [10] was over 100 µM in each case.

`CS(=O)(=O)CCNCc1ccc(-c2ccc3ncnc(Nc4ccc(OCc5ccccc5)c(Br)c4)c3c2)o1`: the GI50 in test [1] was 4.36 µM; in test [2], 7.87 µM; in test [3], over 20.8 µM; in test [4], 6.81 µM; in test [5], 4.69 µM; in test [6], 5.26 µM. Also, the GI50 in test [7] is 9.22 µM; in [8] it was 10.7 µM; in test [9], 4.72 µM; in test [10], 5.26 µM. The TGI in test [1] was 8.69 µM; in test [2], over 25 µM; in test [3], over 25 µM; in [4], 15.9 µM; in test [5] it was 9.75 µM; in test [6] it was 11.8 µM. Also, the TGI in [7] is over 25 µM; in [8], over 25 µM; in test [9] it was 10.1 µM; in [10] it was 12.8 µM.

With `COc1cc(OC)c(SSCCCCS(=O)O)c(OC)c1`, the TGI in test [1] was found to be 29 µM; in test [2], 38.1 µM; in [3], 34.1 µM; in test [4] it was 24.8 µM; in test [5], 35.7 µM; in test [6], 29.9 µM. The TGI in test [7] came to 28.6 µM; in test [8], 44 µM; in test [9], 32.9 µM; in [10], 26.8 µM.

`COc1ccc(-c2cc(=O)c3ccccc3o2)cc1N`: the TGI in [1] was over 100 µM; in test [2], over 100 µM; in test [3] it was over 100 µM; in [4], 47.9 µM; in test [5], over 100 µM; in test [6] it was over 100 µM. The TGI in test [7], in test [8], in [9] and in test [10] was over 100 µM each time.

For `NC(=O)CCC(Nc1c2ccccc2nc2ccccc12)C(=O)O` (centres undefined), the TGI in [1], in test [2], in test [4], in [5], in [6] and in test [7] was over 100 µM each time. In addition, the TGI in test [8], in [9] and in test [10] was over 100 µM throughout.

Take `Cc1ccc(NC2=C(Cl)C(=O)N(Cc3ccc(Cl)cc3)C2=O)cc1O`: the GI50 in [1] is 4.09 µM; in test [2] it was 4.29 µM; in test [3], 10.8 µM; in [4], 54.8 µM; in test [5], 10.7 µM; in [6] it was 6.57 µM. The GI50 in test [7] was 8.88 µM; in test [8], 5.07 µM; in test [10], 4.04 µM. Besides, the TGI was 32.1 µM in test [1]; 20.5 µM in test [2]; 39 µM in [3]; over 100 µM in test [4]; 41 µM in test [5]; 29 µM in test [6]. Further, the TGI is 38.5 µM in test [7], 21.2 µM in test [8] and 19.8 µM in test [10].

As for `C[C@]12CCC(=O)C(O)=C1CC[C@@H]1C2CC[C@]2(C)NC(=O)CCC12` (some centres undefined), the TGI in test [1], in test [2], in [3], in test [4], in test [5] and in test [6] was over 100 µM each time. Further, the TGI in test [7], in test [8], in [9] and in test [10] was over 100 µM throughout.

Take `O=c1ccs[nH]1`: the TGI in [1] is 18.4 µM; in test [2], 34.3 µM; in test [3] it was over 89.1 µM; in test [4] it was 25 µM; in test [5], 30.9 µM; in test [6], 38.3 µM. Further, the TGI in test [7] worked out at 21.7 µM; in [8] it was 35.4 µM; in [9], 34.4 µM; in test [10], 54.2 µM.

For `CCOC(=O)Cc1ccc2c(c1O)C(=O)c1c(ccc(CC(=O)OCC)c1O)C2=O`, the TGI in test [1], in test [3], in test [4], in test [5], in test [6] and in [7] was over 100 µM throughout. Moreover, the TGI in [8], in [9] and in [10] was over 100 µM in each case.

`CC1=C(C(=O)Nc2ccc(Cl)c(Cl)c2)C(c2cccc(Cl)c2)NC(=O)N1` (centres undefined): the GI50 in test [1] is 7.66 µM; in [2], 8.5 µM; in test [3], 9.52 µM; in [4], 10.6 µM; in test [5], 9.42 µM; in [6] it was 12 µM. In addition, the GI50 in test [7] was 0.838 µM; in [8], 7.85 µM; in test [10] it was 1.04 µM. Moreover, the TGI is 16.2 µM in test [1]; 20.1 µM in [2]; 21 µM in [3]; over 35.7 µM in test [4]; 21.2 µM in test [5]; over 50 µM in test [6]. The TGI was determined as 9.13 µM in test [7], 17.4 µM in test [8] and 5.12 µM in test [10].
